Data on one substance can be found in article PMC6643437, “MicroRNA Biogenesis is Enhanced by Liposome-Encapsulated Pin1 Inhibitor in Hepatocellular Carcinoma” (Theranostics, 2019).

For data set [1], the system named is SK-Hep1 tumors. Details: method as in PMID 29381806. Particulars: free API-1, mice, ref [15]; cited from earlier work.
Another data set deals with XPO5. Nature of the data set: XPO5 subcellular distribution (confocal imaging, fractionation and Western blotting). It counts as cell-based, human. Particulars: 1 μM, SK-Hep1. As for the experimental part: SK-Hep1 cells cultured on glass coverslips after different treatments were fixed in 4% PFA for 20 min, permeabilized with 0.5% Triton X-100 for 10 min, blocked with 5% BSA, and then incubated with primary anti-XPO5 antibody at 4 °C overnight, followed by incubation with Alexa Fluor dye- conjugated secondary antibodies for 1 h. Then the nuclei were stained with DAPI for 5 min at room temperature before mounting in Immu-Mout (Thermo fisher). Confocal fluorescence images were captured using Leica TCS SP5 II confocal spectral microscope.
For total protein preparation, cells were lysed on ice for 20 min in the RIPA lysis buffer (Beyotime) with protease inhibitor cocktail (Bimake), followed by centrifugation at 12000 rpm for 10 min at 4 °C. The resultant proteins in the supernatants were stored at -80 °C or directly subjected to SDS-PAGE. For nuclear-cytoplasmic fractionation of proteins, RLN buffer (5 mM Tris-HCl pH 7.4, 1.5 mM MgCl2, 140 mM NaCl, 0.5% NP-40) was freshly prepared when used. SK-Hep1 cells were harvested and gently resuspended in 200 µL RLN buffer with protease inhibitor cocktail, followed by centrifugation at 300 g for 2 minutes at 4 °C, the resultant supernatants are the cytoplasmic proteins. […] The signals were detected using ECL reagents (Life Technologies).
(In general: In western blotting, separated proteins are transferred to a membrane and probed.)

For data set [2], the system named is SK-Hep1 tumors. Nature of the data set: SK-Hep1 xenograft in BALB/c nude mice. The format is in vivo. As for the experimental part:
SK-Hep1 cells during the exponential-growth phase were collected and suspended in saline solution containing 50% Matrigel (Corning) at 5 × 10^7/mL. Then 100 μL of cells were injected into female BALB/c nude mice (5 weeks old) subcutaneously. Tumor growth was recorded every 3 days, and the tumor volume was calculated as ab^2/2 (a, long diameter; b, short diameter). All mice were randomized into 4 groups (8 mice per group) when the tumor volume reached 150-200 mm^3 and then were intravenously injected with normal saline, LP, free API-1 or API-LP at the 4 mg/kg dosage once every two days. At the end of the treatment, tumors were removed from mice and RNAs were extracted for miRNA detection.
Quantitative RT-PCR was used to assess miRNA expression levels. Total RNAs were extracted by TRIzol reagent (Invitrogen) from cells and transcribed by M-MLV reverse transcriptase (Invitrogen). Hairpin-it^TM real-time PCR miRNA kit for miR-122, let-7a, miR-29b and miR-146a were purchased from Shanghai GenePharma Co., Ltd (China). The miRNA levels were determined by Applied Biosystems StepOne Plus Real-Time PCR Systems using SYBR green master mix (Thermo fisher). Small endogenous nucleolar U6 RNA was used as internal control for miRNA normalization.

Data set [3] in a line: In vivo safety study, single 100 mg/kg i.v. dose in BALB/c nude mice. As for the experimental part:
(§1) Safety of the liposomes in vivo was evaluated by blood biochemical analysis, H&E staining and Masson staining of tissues. Briefly, following i.v. administration of normal saline, LP, API-1 or API-LP in the BALB/c nude mice, the peripheral blood samples were collected using heparin and centrifuged for serum biochemical analysis. The tissue samples were simultaneously excised and fixed in 4% PFA. Blood ALT, AST, TBIL, ALB, UREA and total protein analyses were performed using BioAssay Systems blood chemistry assay kits following the manufacturer's instructions. The tissue samples were embedded in paraffin, then cut into 5 μm thick paraffin sections and subsequently placed on glass slide. The slides were stained with H&E. The histopathological alterations were observed and imaged with a light microscope (OLYMPUS BX43).

Data set [4] is described as follows: In vitro drug release by dialysis at pH 7.4. It counts as physicochemical. Particulars: PBS pH 7.4 with 0.5% Tween-80, 37 °C. How it is done: In vitro release of API-1 from API-LP was investigated in a simulated blood pH environment (pH 7.4). Briefly, 1 mL API-LP diluted ten times in advance was used to determine the initial API-1 concentration, and the remaining 9 mL was dialyzed in a dialysis bag (3500 Da) in 50 mL PBS (pH 7.4) containing 0.5% Tween-80. The experiment was performed in triplicate at 37°C with shaking at 100 rpm for one week. Samples were withdrawn at prescheduled sampling time points and replaced with the same volume of release buffer each time. The samples were quantified by high performance liquid chromatography (HPLC).

Another data set concerns SK-Hep1 cells. Nature of the data set: MTT cell viability assay. The format is cell-based, human. The note with it: 72 h. As for the experimental part: MTT assay was conducted to estimate cell viability. Briefly, SK-Hep1 cells were seeded in a 96-well culture plate (2000 cells/well) and then treated with different concentrations of API-LP or free API-1 at 72 h in a 5% CO2 incubator for indicated time. At the end of incubation, 10 µL of MTT solution (5 mg/mL) was added into each well. After a 3 h incubation, DMSO (100 μL) was added to dissolve the resultant purple formazan crystals. The absorbance was measured at 570 nm on Thermo Scientific Varioskan Flash Multimode Reader.
(Tetrazolium dyes change colour on reduction, which living cells bring about.)

Data set [5] is described as follows: Pharmacokinetic study in BALB/c mice. The note with it: 10 mg/kg i.v. It counts as in vivo. As for the experimental part:
The pharmacokinetic performance of API-LP was assessed in BALB/c mice. Following overnight fasting, six mice were randomized into two groups and received i.v. injection of free API-1 in 1 × PBS (pH 7.4) with 5% DMSO and API-LP in 1 × PBS (pH 7.4), respectively, at 10 mg/kg dose. At the prescheduled sampling time points, 20 μL blood samples were collected through caudal vein bleeding into heparinized centrifuge tube, followed by the centrifugation to obtain plasma, which was then stored at -80 °C until determination of the drug concentration.
For API-1 quantitation, plasma samples were thawed to room temperature. API-1 was extracted using acetonitrile and quantified by HPLC with QTRAP 5500 tandem mass spectrometry (LC/MS/ MS) system. The pharmacokinetic parameters based on the measured concentrations were calculated using GraphPad Prism (GraphPad Software).

Data set [6] can be described thus: Blood biochemistry and hepatic histopathology in tumor-bearing mice after multiple dosing. The format is in vivo. Particulars: 4 mg/kg i.v. once every two days. How it is done:
as §1
In order to facilitate the judgment of the positivity and degree of hepatic injury of mice, an ace hepatic injury mice model was built by treating mice with tetracycline by gavage at dose of 500 mg/kg. Mice were fasted after oral tetracycline for 30 h and then were executed. The serum ALT, AST, TBIL and hepatic histopathological examinations were performed to evaluate liver injuries.
The experimental tissues were fixed with formalin and embedded in paraffin. Sections with 5 μm in thickness were prepared for H&E staining, Masson staining and immunostaining with anti-RIP3 antibody (Abcam). The images were acquired on an Olympus digital camera attached to a light microscope.

Where [7] appears, read: 4 mg/kg i.v. once every two days, SK-Hep1 xenograft.

In the case of API-1, in the data set on SK-Hep1 tumors [1], the “efficacious dose to suppress HCC tumor growth in mice” value is recorded as 5 mg/kg. For the same substance, the “nucleus-to-cytoplasm export of XPO5” value with XPO5 is listed as “restored the export of XPO5 to cytoplasm”. For the same substance, in the data set on SK-Hep1 tumors [2] (setting [7]), the body weight entry was “did not impact body weight”; the “tumor growth and tumor volume” value is “significantly suppressed tumor growth and reduced tumor volume”. In the data set with SK-Hep1 tumors [2] (4 mg/kg, SK-Hep1 tumor tissues, real-time PCR), the “biogenesis of mature miRNAs in tumor tissues” value is “significantly increased biogenesis of miR-122, let-7a, miR-29b and miR-146a”. For the same substance, in data set [3], the “haematological or liver toxicity (blood biochemistry)” value is on record as “neither free API-1 nor API-LP had haematological or liver toxicity”. In data set [4], the “release in the first 12 h of dialysis” value was determined as 81.6%. The “inhibition of SK-Hep1 cell proliferation (MTT)” value in the data set with SK-Hep1 cells is on record as “inhibited SK-Hep1 cell proliferation in a dose-dependent manner”. Besides, in data set [5], the “API-1 plasma concentration at 24 h postdose” value is reported as 34.8 ng/mL. In data set [5] (n=3), the Clearance was 72.75 ± 3.93 mL/h and the “Half-life t1/2” value worked out at 6.31 ± 0.66 h. In addition, in data set [6], the “ALT Mean” value is on record as 39.67 U/L, the “AST Mean” value amounted to 133.67 U/L and the “TBIL Mean” value amounted to 1.70 µmol/L.
